Experimental data from patent publication EP2351758B1, “METAL COMPLEXES, A METHOD FOR PREPARING SAME, RADIOPHAR[…] BASED THEREON” (Zakrytoe Aktsionernoe Obschestvo "Farm-Sintez", priority 2008, dated 2010).
Read-outs that look alike come from different tables or passages of the source.

Tests used:
[1] = Pharmacokinetics (distribution in organs and tissues) in intact female rats after intravenous introduction; assay type: in vivo; settings: for Blood / Femur / Kidneys / Liver / Skeleton / Stomach / Urinary bladder (1, 3 h) / Excretion (5, 24): intact female rats, i.v.
Protocol: (§1) The experiments were run on the intact scrub albino rats with modeled osseous pathology. The osseous pathology was imitated by the femur fracture.
(§2) To prepare the composition, 5.0 ml of the sodium pertechnetate ^99mTc from the technetium generator (FSP 42-0225-4528-03, FSP 42-0018-2694-02) were injected into the lyophilizate vial by puncturing the rubber stopper with a syringe needle; then the vial was agitated and cured 20 minutes. The 0.2 ml volume of the composition was injected into the caudal vein. 1, 3, 5, and 24 hours after injection the animals were devitalized by decapitation; then the samples of blood, liver, kidneys, stomach, right and left femurs, urinary bladder with contents were taken. The radionuclide in organs and tissues was determined by the direct radiometry.
(§3) The statistical treatment used the Student's method.

[2] = Pharmacokinetics (distribution in organs and tissues) in female rats with modeled osseous pathology (femur fracture) after intravenous introduction; assay type: in vivo; settings: for Blood / Femur, fractured / Femur, normal / Kidneys / Liver / Skeleton / Stomach / Urinary bladder (1, 3 h) / Excretion (5, 24): female rats with modeled osseous pathology, i.v.; for Delayed retention index: ratio of concentration in femur with modeled pathology to healthy femur
Protocol: as §1, §2
The delayed retention index was determined as the ratio of division of the composition concentration in the femoral bone with the modeled osseous pathology and in the healthy femoral bone.
as §3

[3] = 3 hours after administration, cited from earlier work
[4] = intact animals, 3 hours after introduction

## Technetium-99m in form of complex with zoledronic acid [zoledronic acid, 99mTc]
[1]; 3 hours after administration
  retention level in the liver: 1.0 % of the doze injected
[1]; 3 hours after the administration
  skeletal retention of RM: 47.3 % of the dose injected
[1]; 5 hours after the study start
  activity level in blood: trace
[1]; [4]
  excretion: 30%
  retention in the skeleton: 47%
[1]; intact animals, intravenous injection, in one hour
  injected activity localizes in the skeleton: up to 48 % of the injected activity
[1]; intact animals, intravenous injection, in one hour, 60 min
  excreted from the organism with the urine: 45%
[1]; 1 h
  Blood: 1.7 ± 0.27 % dose/organ
  Femur: 1.8 ± 0.16 % dose/organ
  Kidneys: 1.3 ± 0.17 % dose/organ
  Liver: 0.8 ± 0.12 % dose/organ
  Skeleton: 48.1 ± 4.36 % dose/organ
  Stomach: 0.1 ± 0.03 % dose/organ
  Urinary bladder (1, 3 h): 45.4 ± 4.03 % dose/organ
[1]; 3 h
  Blood: 0.9 ± 0.38 % dose/organ
  Femur: 1.9 ± 0.35 % dose/organ
  Kidneys: 0.9 ± 0.21 % dose/organ
  Liver: 1.0 ± 0.27 % dose/organ
  Skeleton: 47.3 ± 2.89 % dose/organ
  Stomach: 0.1 ± 0.01 % dose/organ
  Urinary bladder (1, 3 h): 30.1 ± 4.41 % dose/organ
[1]; 5 h
  Blood: 0.4 ± 0.03 % dose/organ
  Excretion (5, 24): 52.4 ± 2.80 % dose/organ
  Femur: 1.6 ± 0.11 % dose/organ
  Kidneys: 1.2 ± 0.13 % dose/organ
  Liver: 0.6 ± 0.11 % dose/organ
  Skeleton: 42.9 ± 2.93 % dose/organ
  Stomach: 0.1 ± 0.04 % dose/organ
[1]; 24 h
  Blood: traces
  Excretion (5, 24): 39.1 ± 5.00 % dose/organ
  Femur: 1.8 ± 0.06 % dose/organ
  Kidneys: 0.6 ± 0.32 % dose/organ
  Liver: 0.2 ± 0.13 % dose/organ
  Skeleton: 49.6 ± 1.77 % dose/organ
  Stomach: 0.3 ± 0.05 % dose/organ
[2]; 1 h
  Blood: 1.7 ± 0.71 % dose/organ
  Femur, fractured: 4.2 ± 1.04 % dose/organ
  Femur, normal: 2.1 ± 0.20 % dose/organ
  Kidneys: 1.8 ± 0.83 % dose/organ
  Liver: 1.7 ± 0.58 % dose/organ
  Skeleton: 57.7 ± 5.54 % dose/organ
  Stomach: 0.4 ± 0.03 % dose/organ
  Urinary bladder (1, 3 h): 35.1 ± 10.53 % dose/organ
  Delayed retention index: 2.0
[2]; 3 h
  Blood: 2.0 ± 0.81 % dose/organ
  Femur, fractured: 4.0 ± 1.34 % dose/organ
  Femur, normal: 1.9 ± 0.42 % dose/organ
  Kidneys: 1.4 ± 0.68 % dose/organ
  Liver: 1.1 ± 0.42 % dose/organ
  Skeleton: 46.6 ± 7.81 % dose/organ
  Stomach: 0.2 ± 0.09 % dose/organ
  Urinary bladder (1, 3 h): 44.8 ± 3.89 % dose/organ
  Delayed retention index: 2.1
[2]; 5 h
  Blood: 0.5 ± 0.01 % dose/organ
  Excretion (5, 24): 43.4 ± 5.05 % dose/organ
  Femur, fractured: 3.1 ± 0.70 % dose/organ
  Femur, normal: 1.9 ± 0.20 % dose/organ
  Kidneys: 0.9 ± 0.06 % dose/organ
  Liver: 1.0 ± 0.05 % dose/organ
  Skeleton: 49.9 ± 5.44 % dose/organ
  Stomach: 0.4 ± 0.05 % dose/organ
  Delayed retention index: 1.7
[2]; 24 h
  Blood: 0.7 ± 0.01 % dose/organ
  Excretion (5, 24): 52.5 ± 10.86 % dose/organ
  Femur, fractured: 2.5 ± 0.05 % dose/organ
  Femur, normal: 1.4 ± 0.40 % dose/organ
  Kidneys: 0.5 ± 0.08 % dose/organ
  Liver: 0.5 ± 0.09 % dose/organ
  Skeleton: 38.0 ± 11.02 % dose/organ
  Stomach: traces
  Delayed retention index: 1.9

## 99Tcm labeled zoledronate (ZL) [known solution (Wang et al)]
[3]; known solution (Wang et al)
  skeletal retention of RM: 34.2%
[3]; prior metal complex (Wang et al)
  retention level in the liver: 13.4 % of the doze injected
